Test results taken from publication PMC4374931 (PLoS ONE, 2015).
Where two headings read alike, the source gives them in different places.

Tests used:
in vitro = type: cell-based; settings: human
Protocol: AIZ-AR cells were seeded in 96-well plates at density 5x10^4 cells per well. […] Following the incubation, MTT assay was measured spectrophotometrically at 540 nm using Tecan Infinite M2000 plate luminometer.

firefly luciferase = test: Inhibition of firefly luciferase in cell lysates; type: biochemical; settings: compounds 10 μM added to lysates of cells treated with 100 nM DHT; data not shown
Protocol: AIZ-AR cells were treated with 100 nM DHT for 24 hours. Cell lysates containing firefly luciferase, having a catalytic activity corresponding to model ligand-treated cells, were isolated. Tested compounds (10 μM) were added to cell lysates and luciferase activity was measured.

human androgen receptor [1] = molecular target: T1, human androgen receptor (Homo sapiens, UniProt P10275); test: Gene reporter assay in AIZ-AR cells, agonist mode (luciferase); type: cell-based
Protocol: (§1) AIZ-AR cells were seeded in 96-well plates at density 5x10^4 cells per well. […] After the treatments, cells were lysed and luciferase activity was measured in 96-well plate format using Tecan Infinite M2000 plate luminometer.
(§2) Dose-response analyses assays were performed in two different experimental layouts. […] Where appropriate, IC50 (half maximal inhibitory concentration) values were calculated.

androgen receptor [2] = molecular target: androgen receptor; parameters: method as in Sedlak et al.; settings: published data; ref Sedlak et al.; cited from earlier work
androgen receptor [3] = molecular target: androgen receptor; parameters: method as in Wilkinson et al.; settings: published data; ref Wilkinson et al.; cited from earlier work
human androgen receptor [4] = molecular target: T1, human androgen receptor; test: Gene reporter assay in AIZ-AR cells, antagonist mode with DHT (100 nM); type: cell-based
Protocol: as §1, §2

androgen receptor [5] = settings: cited from earlier work

T1 sequence (P10275 whole entry): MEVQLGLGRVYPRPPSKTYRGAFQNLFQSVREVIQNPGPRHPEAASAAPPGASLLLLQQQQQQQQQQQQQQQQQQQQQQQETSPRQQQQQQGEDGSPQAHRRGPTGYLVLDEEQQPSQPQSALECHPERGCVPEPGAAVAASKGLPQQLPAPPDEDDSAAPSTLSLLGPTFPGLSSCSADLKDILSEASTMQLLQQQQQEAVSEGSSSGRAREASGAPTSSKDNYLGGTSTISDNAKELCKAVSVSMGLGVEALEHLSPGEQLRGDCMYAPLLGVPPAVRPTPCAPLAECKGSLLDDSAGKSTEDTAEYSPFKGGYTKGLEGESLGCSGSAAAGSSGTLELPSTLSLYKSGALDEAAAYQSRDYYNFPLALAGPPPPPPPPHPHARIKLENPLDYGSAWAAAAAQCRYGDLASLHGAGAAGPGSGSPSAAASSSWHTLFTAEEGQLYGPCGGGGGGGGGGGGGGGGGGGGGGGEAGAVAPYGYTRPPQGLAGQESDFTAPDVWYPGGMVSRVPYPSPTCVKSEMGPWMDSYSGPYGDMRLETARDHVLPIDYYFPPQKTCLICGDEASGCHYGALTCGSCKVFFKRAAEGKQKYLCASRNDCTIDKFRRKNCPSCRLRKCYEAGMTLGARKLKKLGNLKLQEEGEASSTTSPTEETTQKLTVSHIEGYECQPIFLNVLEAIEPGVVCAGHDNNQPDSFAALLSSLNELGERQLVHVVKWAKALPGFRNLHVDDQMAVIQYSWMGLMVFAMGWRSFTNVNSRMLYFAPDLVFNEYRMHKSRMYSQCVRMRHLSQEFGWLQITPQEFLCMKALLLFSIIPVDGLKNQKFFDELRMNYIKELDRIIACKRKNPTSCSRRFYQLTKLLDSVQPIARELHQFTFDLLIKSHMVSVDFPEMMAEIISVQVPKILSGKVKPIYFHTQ

SMILES	viability at 24 h, 0.1 nM (in vitro) [%]	viability at 24 h, 1 nM (in vitro) [%]	viability at 24 h, 10 nM (in vitro) [%]	viability at 24 h, 100 nM (in vitro) [%]	viability at 24 h, 1 μM (in vitro) [%]	viability at 24 h, 10 μM (in vitro) [%]	influence on firefly luciferase catalytic activity (firefly luciferase)	Log EC50 (human androgen receptor [1]; Clone 8, 24 h)	Log EC50 (human androgen receptor [1]; Clone 14, 24 h)	Literature Log EC50 (androgen receptor [2])	Literature Log EC50 (androgen receptor [3])	agonist-induced luciferase activity (human androgen receptor [4]; antagonist mode, 10^-5 M, probably due to luciferase inhibition)	effect on agonist-induced luciferase activity in antagonist mode (human androgen receptor [4]; with DHT (100 nM) or testosterone (10 nM) as agonist, 24 h)	Response of AR-LUX cell line (induction) (androgen receptor [5])
O=c1c(-c2ccc(O)cc2)coc2cc(O)cc(O)c12 [Genistein, genistein]	100	96.5 ± 2.4	96.7 ± 3.3	103 ± 7.5	103 ± 7.5	120 ± 6.4	significantly influenced luciferase activity	-6.62 ± 0.42	-6.79 ± 0.23	> -5.00	> -5.00	massive drop	strongly augmented agonist-induced luciferase activity	
C[C@]1(O)CC[C@H]2[C@@H]3CCC4=CC(=O)CCC4=C3C=C[C@@]21C [R1881]														maximally five-fold induction
